In patent US20250221948A1, “Complex of 3-hydroxybutyric acid and sodium 3-hydroxybutyrate and preparation method thereof” (priority 2022, published 2025):
Read-outs that look alike come from different tables or passages of the source.

What was measured:
Type in all cases: physicochemical
[1] = Determination of moisture contents with KF moisture meter at different time points (hygroscopicity); details: for hygroscopicity of the solid acid: easy to deliquesce; for moisture content (%): temperature 23° C., humidity 92.5%; for moisture content of the complex compared with the acid, the sodium salt and their mixture: summary of Tables 2A-2C
From the text: For R-3-hydroxybutyric acid, sodium R-3-hydroxybutyrate, Mixture of R-3-hydroxybutyric acid and sodium R-3-hydroxybutyrate, as well as R-3-hydroxybutyric acid·sodium R-3-hydroxybutyrate complex of Examples 1-6, under a certain condition, KF moisture meter was used to determine the moisture contents at different time points.
For 3-hydroxybutyric acid, sodium 3-hydroxybutyrate, mixture of 3-hydroxybutyric acid and sodium 3-hydroxybutyrate, as well as 3-hydroxybutyric acid·sodium 3-hydroxybutyrate complex of Examples 7-9, under a certain condition, KF moisture meter was used to determine the moisture contents at different time points.
For S-3-hydroxybutyric acid, sodium S-3-hydroxybutyrate, mixture of S-3-hydroxybutyric acid and sodium S-3-hydroxybutyrate, as well as S-3-hydroxybutyric acid·sodium S-3-hydroxybutyrate complex of Examples 10-12, under a certain condition, KF moisture meter was used to determine the moisture contents at different time points.

[2] = Stability of the solids at different temperatures
Description: For R-3-hydroxybutyric acid, sodium R-3-hydroxybutyrate, mixture of R-3-hydroxybutyric acid and sodium R-3-hydroxybutyrate, as well as R-3-hydroxybutyric acid·sodium R-3-hydroxybutyrate complex of Examples 1-6, the stability was measured at 60° C., 70° C. and 80° C., and the experimental results are shown in Table 3A.
For 3-hydroxybutyric acid, sodium 3-hydroxybutyrate, mixture of 3-hydroxybutyric acid and sodium 3-hydroxybutyrate, as well as 3-hydroxybutyric acid·sodium 3-hydroxybutyrate complex of Examples 7-9, the stability was measured at 60° C., 70° C. and 80° C., and the experimental results are shown in Table 3B.
For S-3-hydroxybutyric acid, sodium S-3-hydroxybutyrate, mixture of S-3-hydroxybutyric acid and sodium S-3-hydroxybutyrate, as well as S-3-hydroxybutyric acid·sodium S-3-hydroxybutyrate complex of Examples 10-12, the stability was measured at 60° C., 70° C. and 80° C., and the experimental results are shown in Table 3C.

[3] = Stability of the solids at different temperatures; remark: listed apart in the source

Row | Compound | hygroscopicity of the solid acid [1] | moisture content (%) ([1]; 30 min) | moisture content (%) ([1]; 1 h) | moisture content (%) ([1]; 2 h) | moisture content (%) ([1]; 4 h) | moisture content (%) ([1]; 6 h) | moisture content (%) ([1]; 7 h) | moisture content (%) ([1]; 11 h) | moisture content (%) ([1]; 22 h) | hygroscopicity of the complex compared with the acid, the sodium salt and their mixture [1] | moisture content of the complex compared with the acid, the sodium salt and their mixture [1] | Stability [2] | stability of the complex [2] | Stability ([2]; 60° C.) | Stability ([2]; 70° C.) | Stability ([2]; 80° C.) | Stability ([3]; 30° C.) | Stability ([3]; 40° C.) | Stability ([3]; 50° C.)
1 | CC(O)CC(=O)O (stereo not shown) [3-hydroxybutyric acid] | strong hygroscopicity | 1.32% | 2.37% | 4.15% | 6.59% | 9.68% | 10.71% | 17.33% | 33.51% |  |  |  |  |  |  |  |  |  | 
2 | C[C@H](O)CC(=O)O [S-3-hydroxybutyric acid·sodium S-3-hydroxybutyrate] |  | 0.71% | 1.38% | 1.85% | 3.28% | 4.79% | 5.32% | 8.43% | 16.93% | obviously superior | significantly lower | unchanged | very high |  |  |  |  |  | 
3 | C[C@@H](O)CC(=O)O [R-3-hydroxybutyric acid] | strong hygroscopicity | 1.13% | 2.25% | 3.96% | 6.46% | 9.52% | 10.56% | 17.22% | 33.34% |  |  |  |  |  |  |  |  |  | 
4 | C[C@@H](O)CC(=O)[O-].[Na+] [Sodium R-3-hydroxybutyrate, sodium R-3-hydroxybutyrate] |  | 1.04% | 2.01% | 3.39% | 5.23% | 7.35% | 8.04% | 12.68% | 24.68% |  |  | unchanged |  |  |  |  |  |  | 
5 | C[C@H](O)CC(=O)[O-].[Na+] [Sodium S-3-hydroxybutyrate, sodium S-3-hydroxybutyrate] |  | 1.09% | 2.07% | 3.49% | 5.32% | 7.46% | 8.15% | 12.73% | 24.53% |  |  |  |  | unchanged | unchanged | unchanged | unchanged | unchanged | unchanged
6 | C[C@H](O)CC(=O)O [S-3-hydroxybutyric acid] | strong hygroscopicity | 1.23% | 2.28% | 4.05% | 6.32% | 9.53% | 10.62% | 17.08% | 32.95% |  |  |  |  | melted | melted | melted | unchanged |  | melted
7 | CC(O)CC(=O)O (stereo not shown) [3-hydroxybutyric acid • sodium 3-hydroxybutyrate complex] [3-hydroxybutyric acid·sodium 3-hydroxybutyrate] |  | 0.61% | 1.18% | 2.05% | 3.38% | 4.99% | 5.52% | 8.73% | 17.63% | obviously superior | significantly lower | unchanged | very high |  |  |  |  |  | 
8 | C[C@@H](O)CC(=O)O [R-3-hydroxybutyric acid • sodium R-3-hydroxybutyrate complex] [R-3-hydroxybutyric acid·sodium R-3-hydroxybutyrate] |  | 0.54% | 1.02% | 1.96% | 3.26% | 4.89% | 5.39% | 8.65% | 17.45% | obviously superior | significantly lower | unchanged | very high |  |  |  |  |  | 
9 | CC(O)CC(=O)[O-].[Na+] (stereo not shown) [Sodium 3-hydroxybutyrate, sodium 3-hydroxybutyrate] |  | 1.15% | 2.19% | 3.62% | 5.35% | 7.54% | 8.35% | 12.86% | 24.95% |  |  | unchanged |  |  |  |  |  |  | 
